Data taken from patent US20250092065A1, “2-(INDAZOL-5-YL)-6-(PIPERIDIN-4-YL)-1,7-NAPHTHYRIDINE DERIVATIVES AND RELATED COMPOUNDS AS MODULATORS FOR SPLICING NUCLEIC ACIDS AND FOR THE TREATMENT OF PROLIFERATIVE DISEASES” (REMIX THERAPEUTICS INC., priority 2022, published 2025).
Where two headings read alike, the source gives them in different places.

Assays:
[1] = system: HTT mRNA; assay: RT-qPCR splicing assay, HTT mRNA canonical (CJ) and alternative (AJ) junction; assay type: cell-based, human; details: Homo sapiens
In short: (§1)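 A673 or K562 cells treated 24 h at 37 °C with an 11-point 3-fold dilution series (top 10 uM, DMSO ≤0.25%). Lysates went directly to one-step RT-qPCR quantifying canonical (CJ) and alternative-exon (AJ) junctions, normalized to GAPDH, GUSB or PPIA. Values from ΔΔCt versus DMSO, RQ = 2^(−ΔΔCt), expressed as percentage response.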

[2] = system: MYB mRNA; assay: RT-qPCR splicing assay, MYB mRNA canonical (CJ) and alternative (AJ) junction; assay type: cell-based, human; details: Homo sapiens
In short: as §1

[3] = system: K562 cells; assay: Cell Titer Glo 2.0 cell viability (toxicity) assay, K562; details: 500 cells/well, 72 hours
[4] = system: Target C; assay: RT-qPCR canonical junction panel assay, Target C mRNA; assay type: cell-based; details: Table 4, read-out: Target C IC50 (decrease in CJ mRNA levels)
Description: Compounds described herein were used to modulate RNA transcript abundance in cells. The expression of a target mRNA was measured by detecting the formation of an exon-exon junction in the canonical transcript (CJ). A compound mediated exon-inclusion event was detected by observing an increase in formation of a new junction with an alternative exon (AJ). Real-time qPCR assays were used to detect these splicing switches and interrogate the potency of various compounds towards different target genes. A high-throughput real time quantitative PCR (RT-qPCR) assay was developed to measure these two isoforms of the mRNA (CJ and AJ) for exemplary genes, such as HTT, SMN2, and MYB, together with a control housekeeping gene, GAPDH or GUSB or PPIA, used for normalization. Briefly, the A673 or K562 cell line was treated with various compounds described herein (e.g., compounds of Formula (I)). After treatment, the levels of the HTT, MYB, or SMN2 mRNA targets were determined from each sample of cell lysate by cDNA synthesis followed by qPCR.
The data analysis was performed by first determining the ΔCt vs the housekeeper gene. This ΔCt was then normalized against the DMSO control (ΔΔCt) and converted to RQ (relative quantification) using the 2^(−ΔΔCt) equation. The RQ were then converted to a percentage response by arbitrarily setting an assay window of 3.5 and 4.0 ΔCt for HTT-CJ and MYB-CJ respectively and an assay window of 9 and 3 ΔCt for HTT-AJ and MYB-AJ in 96 well format (50,000 K562 cells/well and 15,000 A673 cells per well) and an assay window of 3 and 4 ΔCt for HTT-CJ and MYB-CJ respectively and an assay window of 5 and 3 ΔCt for HTT-AJ and MYB-AJ respectively in 384 well format (8,000 K562 cells/well example). […] The percentage response was then fitted to the 4 parametric logistic equation to evaluate the concentration dependence of compound treatment. The increase in AJ mRNA is reported as AC50 (compound concentration having 50% response in AJ increase) while the decrease in CJ mRNA levels is reported as IC50 (compound concentration having […] in CJ decrease).
Additional studies were carried out for a larger panel of genes using the protocol provided above. The junction between flanking upstream and downstream exons was used to design canonical junction Qpcr assays. At least one of the forward primer, reverse primer or the CY5-labeled 5′ nuclease probe (with 3′ quencher such as ZEN/Iowa Black FQ) was designed to overlap with the exon junction to capture the CJ Mrna transcript. BLAST was used to confirm the specificity of the probeset and parameters suCH As melting temperature, GC content, amplicon size, and primer dimer formation are considered during their design. Data for the decrease in CJ Mrna levels for four exemplary genes (HTT, SMN2, MYB, and Target C) analyzed in this panel are reported as IC50 (compound concentration having […] in CJ decrease).

[5] = system: HTT; assay: HiBiT protein abundance assay, HTT (K562 HiBiT knock-in); assay type: cell-based, human; details: HiBiT knock-in K562 cells, 24 hours, top dose 10 μM
In short: (§2)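 Tagged-protein levels were measured as HiBiT/LgBiT luminescence in lysed K562 knock-in cells exposed to serially diluted compound (up to 10 μM final) for 24 hours. A four-parameter logistic regression of control-normalized signal yielded the IC50.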

[6] = system: MYB; assay: HiBiT protein abundance assay, MYB (K562 HiBiT knock-in); assay type: cell-based, human; details: HiBiT knock-in K562 cells, 24 hours, top dose 10 μM
In short: as §2

[7] = system: SMN2 mRNA; assay: RT-qPCR splicing assay, SMN2 mRNA; assay type: cell-based, human; details: Homo sapiens, canonical junction qPCR panel, Table 4; read-out: SMN2 IC50 (decrease in CJ mRNA levels)
In short: as §1

[8] = system: Target C; assay: HiBiT protein abundance assay, Target C (K562 HiBiT knock-in); assay type: cell-based, human; details: HiBiT knock-in K562 cells, 24 hours, top dose 10 μM
In short: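 K562 HiBiT knock-in cells (10000/well) were treated 24 h at 37° C with a 10-point 3-fold dilution series (top 10 μM final, ≤0.25% DMSO). HiBiT luminescence was read after lytic LgBiT detection. Percent response used unmodified K562 and DMSO-treated knock-in controls, and IC50 came from a four-parameter fit at 50% of untreated.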

[9] = RT-qPCR, HTT alternative junction mRNA increase, read-out: HTT AJ (increase in alternative junction mRNA, AC50)
[10] = RT-qPCR, HTT canonical junction mRNA decrease, read-out: HTT CJ (decrease in canonical junction mRNA, IC50)
[11] = canonical junction qPCR panel, Table 4, read-out: HTT IC50 (decrease in CJ mRNA levels)
[12] = RT-qPCR, MYB alternative junction mRNA increase, read-out: MYB AJ (increase in alternative junction mRNA, AC50)
[13] = RT-qPCR, MYB canonical junction mRNA decrease, read-out: MYB CJ (decrease in canonical junction mRNA, IC50)
[14] = canonical junction qPCR panel, Table 4, read-out: MYB IC50 (decrease in CJ mRNA levels)
[15] = HTT alternative junction mRNA, RT-qPCR, read-out: HTT AJ (increase in AJ mRNA, AC50)
[16] = HTT canonical junction mRNA, RT-qPCR, read-out: HTT CJ (decrease in CJ mRNA levels, IC50)
[17] = MYB alternative junction mRNA, RT-qPCR, read-out: MYB AJ (increase in AJ mRNA, AC50)
[18] = MYB canonical junction mRNA, RT-qPCR, read-out: MYB CJ (decrease in CJ mRNA levels, IC50)

| IC50 [1, 10] | IC50 [1, 11] | IC50 [2, 13] | IC50 [2, 14] | IC50 [4] | IC50 [5] | IC50 [1, 16] | IC50 [2, 18] | IC50 [6] | IC50 [7] | IC50 [8] | SMILES | AC50 [1, 9] | AC50 [2, 12] | Effect of Exemplary Compounds on Cell Viability, K562 [3] | AC50 [1, 15] | AC50 [2, 17] |
| --- | --- | --- | --- | --- | --- | --- | --- | --- | --- | --- | --- | --- | --- | --- | --- | --- |
| > 10000 nM | > 10000 nM | 100 to 1000 nM | 100 to 1000 nM | > 10000 nM | – | – | – | – | – | – | Cc1c(O)c(-c2nc(C3CCC3)c3cc(N4C[C@H](C)N[C@@H](C)C4)ccc3n2)cc2cn(C)nc12 (single isomer, unassigned) [Compound 794] | 1000 to 10000 nM | 100 to 1000 nM | B (B represents 100-1000 nM) | – | – |
| > 10000 nM | > 10000 nM | 1000 to 10000 nM | 1000 to 10000 nM | > 10000 nM | – | – | – | – | – | – | Cc1cn2nc(-c3ncc4cc(N5C[C@H](C)N[C@@H](C)C5)ccc4n3)cc(C)c2n1 (single isomer, unassigned) [Compound 798] | > 10000 nM | 100 to 1000 nM | C (C represents 1000-9999 nM) | – | – |
| – | > 10000 nM | – | > 10000 nM | – | 1000 to 10000 nM | > 10000 nM | > 10000 nM | > 10000 nM | 1000 to 10000 nM | > 10000 nM | Cn1cc2cc(-c3ccc4nc(N5CC[C@@H](NCC(F)(F)F)C5)ccc4n3)c(O)cc2n1 [Compound 245] | – | – | D (D represents greater than 10 μM in K562 cells) | > 10000 nM | > 10000 nM |
| – | < 100 nM | – | < 100 nM | – | < 100 nM | < 100 nM | < 100 nM | < 100 nM | < 100 nM | < 100 nM | Cn1cc2cc(-c3ccc4nc(N5CC[C@@H](N[C@H]6C[C@H](F)C6)C5)ccc4n3)c(O)cc2n1 [Compound 246] | – | – | B (B represents 100-1000 nM) | < 100 nM | < 100 nM |
| – | < 100 nM | – | < 100 nM | – | 100 to 1000 nM | < 100 nM | < 100 nM | 100 to 1000 nM | < 100 nM | 100 to 1000 nM | Cn1cc2cc(-c3ccc4nc(N5CC[C@H](N[C@H]6C[C@H](F)C6)C5)ccc4n3)c(O)cc2n1 [Compound 247] | – | – | B (B represents 100-1000 nM) | 100 to 1000 nM | < 100 nM |
| – | < 100 nM | – | < 100 nM | – | < 100 nM | < 100 nM | < 100 nM | < 100 nM | < 100 nM | < 100 nM | Cc1nc2c(F)c(O)c(-c3ccc4nc(N5CC[C@@H](NC6CC6)C5)ccc4n3)cc2o1 [Compound 253] | – | – | A (A represents <100 nM) | < 100 nM | < 100 nM |
| – | < 100 nM | – | < 100 nM | – | < 100 nM | < 100 nM | < 100 nM | < 100 nM | < 100 nM | < 100 nM | Cc1nc2c(F)c(O)c(-c3ccc4nc(N5CC[C@H](NC6CC6)C5)ccc4n3)cc2o1 [Compound 254] | – | – | A (A represents <100 nM) | < 100 nM | < 100 nM |
| – | < 100 nM | – | < 100 nM | – | < 100 nM | < 100 nM | < 100 nM | < 100 nM | < 100 nM | < 100 nM | Cc1nc2c(F)c(O)c(-c3ccc4nc(N5CC[C@H](NC(C)(C)C)C5)ccc4n3)cc2o1 [Compound 255] | – | – | A (A represents <100 nM) | < 100 nM | < 100 nM |
| – | < 100 nM | – | < 100 nM | – | < 100 nM | < 100 nM | < 100 nM | < 100 nM | < 100 nM | < 100 nM | Cc1nc2cc(O)c(-c3ccc4nc(N5CC[C@H](NC6(C)CC6)C5)ccc4n3)cc2o1 [Compound 257] | – | – | B (B represents 100-1000 nM) | < 100 nM | < 100 nM |
| – | < 100 nM | – | 100 to 1000 nM | – | 100 to 1000 nM | < 100 nM | 100 to 1000 nM | 100 to 1000 nM | < 100 nM | 100 to 1000 nM | Cc1nc2cc(O)c(-c3ccc4nc(N5CC[C@@H](NC6(C)CC6)C5)ccc4n3)cc2o1 [Compound 258] | – | – | C (C represents 1000-9999 nM) | < 100 nM | 100 to 1000 nM |
| – | < 100 nM | – | < 100 nM | – | < 100 nM | < 100 nM | < 100 nM | < 100 nM | < 100 nM | < 100 nM | Cc1c(O)c(-c2ccc3nc(N4CC[C@@H](NC5CC5)C4)ccc3n2)cc2cn(C)nc12 [Compound 259] | – | – | B (B represents 100-1000 nM) | < 100 nM | < 100 nM |
| – | < 100 nM | – | < 100 nM | – | < 100 nM | < 100 nM | < 100 nM | < 100 nM | < 100 nM | < 100 nM | Cc1c(O)c(-c2ccc3nc(N4CC[C@H](NC5CC5)C4)ccc3n2)cc2cn(C)nc12 [Compound 260] | – | – | B (B represents 100-1000 nM) | < 100 nM | < 100 nM |
| 1000 to 10000 nM | 1000 to 10000 nM | 1000 to 10000 nM | 1000 to 10000 nM | > 10000 nM | – | – | – | – | – | – | Cc1c(O)c(-c2nc(C3CCC3)c3cc(N4C[C@@H](C)N[C@@H](C)C4)ccc3n2)cc2cn(C)nc12 [Compound 790, 5-{4-cyclobutyl-6-[(3R,5S)-3,5-dimethylpiperazin-1-yl]quinazolin-2-yl}-2,7-dimethylindazol-6-ol] | > 10000 nM | 1000 to 10000 nM | C (C represents 1000-9999 nM) | – | – |
